Measured values from ChEMBL document CHEMBL1201862, “PubChem BioAssay data set” (2004).
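Values below derive from 48-hour exposures of cells grown in 96-well plates, with endpoints linearly interpolated between the two concentrations bracketing the appropriate inhibition level. GI50 = concentration required for 50% inhibition of growth.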 The source made the active and inactive calls. Cut-off read from the data, not from the text of the source: active = GI50 up to about 1.1 µM and inactive = higher.

What was measured:
Test in all cases: growth of human tumour cells (NCI), 48 h
HCC 2998 = tested on: HCC 2998
786-0 = tested on: 786-0
NCI-H522 = tested on: NCI-H522
UO-31 = tested on: UO-31
U-251 = tested on: U-251
ACHN = tested on: ACHN
TK-10 = tested on: TK-10
SK-MEL-2 = tested on: SK-MEL-2
M14 = tested on: M14
EKVX = tested on: EKVX
UACC-62 = tested on: UACC-62
OVCAR-3 = tested on: OVCAR-3
HCT-116 = tested on: HCT-116
A549 = tested on: A549
CAKI-1 = tested on: CAKI-1

Measured: GI50

Cc1nc2c(n1Cc1ccc(F)cc1)C(=O)c1ccccc1C2=O
inactive: HCC 2998 87.3 µM | 786-0 13.1 µM | NCI-H522 10.8 µM | UO-31 > 100 µM | U-251 6.56 µM | ACHN 28.9 µM | TK-10 > 100 µM | SK-MEL-2 34.1 µM | M14 > 100 µM | EKVX 71 µM | UACC-62 5.25 µM | OVCAR-3 15.1 µM | HCT-116 6.89 µM | A549 36.5 µM

CCC1(O)C(=O)OCc2c1cc1n(c2=O)Cc2cc3cc(OC)c(OC)cc3nc2-1 (stereo not drawn)
inactive: HCC 2998 36.7 µM | 786-0 6.28 µM | NCI-H522 8.61 µM | UO-31 32 µM | U-251 6.52 µM | ACHN 4.5 µM | TK-10 > 100 µM | M14 26.4 µM | EKVX > 100 µM | UACC-62 > 10 µM | OVCAR-3 83.4 µM | HCT-116 22.3 µM | A549 33.1 µM

CC1=C(c2cc(C(=O)Nc3cccc(C(F)(F)F)c3)ncn2)Sc2ccccc2N1
inactive: 786-0 > 100 µM | NCI-H522 > 100 µM | UO-31 > 100 µM | U-251 > 100 µM | ACHN > 100 µM | TK-10 > 100 µM | SK-MEL-2 > 100 µM | M14 > 100 µM | EKVX > 100 µM | CAKI-1 > 100 µM | UACC-62 > 100 µM | OVCAR-3 > 100 µM | HCT-116 > 100 µM | A549 > 100 µM

Cc1cccc2c1C/C(=C1\CCc3c(C)cccc31)C2=O
inactive: HCC 2998 > 100 µM | 786-0 90.4 µM | UO-31 > 100 µM | U-251 > 100 µM | ACHN > 100 µM | TK-10 > 100 µM | SK-MEL-2 > 100 µM | M14 > 100 µM | EKVX > 100 µM | CAKI-1 > 100 µM | UACC-62 > 100 µM | OVCAR-3 > 100 µM | HCT-116 > 100 µM | A549 > 100 µM

CCOC(=O)C(C)(C)Oc1ccc2c(=O)cc(-c3ccc(Cl)cc3)oc2c1
inactive: HCC 2998 > 100 µM | 786-0 > 100 µM | UO-31 > 100 µM | U-251 > 100 µM | ACHN > 100 µM | TK-10 > 100 µM | SK-MEL-2 > 100 µM | M14 > 100 µM | EKVX > 100 µM | UACC-62 > 100 µM | OVCAR-3 > 100 µM | HCT-116 > 100 µM | A549 > 100 µM

COc1ccc(NC(=O)C(C)Oc2ccc(OCC3CCCCC3)cc2)cc1 (stereo not drawn)
inactive: HCC 2998 23.6 µM | 786-0 > 100 µM | NCI-H522 25.6 µM | UO-31 51.4 µM | U-251 > 100 µM | ACHN 44.5 µM | TK-10 > 100 µM | SK-MEL-2 81.1 µM | M14 70.3 µM | UACC-62 > 100 µM | OVCAR-3 62.5 µM | HCT-116 > 100 µM | A549 54.1 µM

CCc1oc2ccc(OC)c3c2c1C=CC=C3
inactive: HCC 2998 > 100 µM | 786-0 > 100 µM | NCI-H522 > 100 µM | UO-31 21.9 µM | U-251 > 100 µM | ACHN > 100 µM | TK-10 > 100 µM | SK-MEL-2 > 100 µM | M14 > 100 µM | EKVX > 100 µM | UACC-62 > 100 µM | OVCAR-3 > 100 µM | A549 > 100 µM

CC1(C)CC(C)(C)CC(O)(C2(O)CC(C)(C)CC(C)(C)C2)C1
inactive: HCC 2998 > 100 µM | 786-0 > 100 µM | NCI-H522 > 100 µM | UO-31 > 100 µM | U-251 > 100 µM | ACHN > 100 µM | TK-10 > 100 µM | M14 > 100 µM | EKVX > 100 µM | UACC-62 > 100 µM | OVCAR-3 > 100 µM | HCT-116 > 100 µM | A549 > 100 µM

CCCCCCCOc1ccc(/C=C\c2cc[n+](CCCCCCCC[n+]3ccc(/C=C\c4ccc(OCCCCCCC)cc4)cc3)cc2)cc1
inactive: 786-0 14.7 µM | NCI-H522 2.64 µM | UO-31 19.5 µM | U-251 7.46 µM | ACHN 38.2 µM | TK-10 23.9 µM | SK-MEL-2 17.6 µM | M14 17.5 µM | EKVX > 100 µM | CAKI-1 33.5 µM | UACC-62 35.3 µM | OVCAR-3 19.1 µM | HCT-116 13.6 µM | A549 8.55 µM

CC(=O)N(O)Cc1ccccc1
inactive: HCC 2998 > 100 µM | 786-0 > 100 µM | NCI-H522 > 100 µM | UO-31 > 100 µM | U-251 > 100 µM | ACHN > 100 µM | TK-10 > 100 µM | M14 > 100 µM | CAKI-1 > 100 µM | UACC-62 > 100 µM | OVCAR-3 > 100 µM | HCT-116 > 100 µM | A549 > 100 µM

O=S(=O)(c1ccccc1)C(CN1CCCCC1)S(=O)(=O)c1ccccc1
inactive: HCC 2998 > 100 µM | 786-0 > 100 µM | NCI-H522 > 100 µM | UO-31 > 100 µM | U-251 > 100 µM | ACHN > 100 µM | TK-10 > 100 µM | SK-MEL-2 > 100 µM | M14 > 100 µM | CAKI-1 > 100 µM | UACC-62 > 100 µM | OVCAR-3 > 100 µM | A549 > 100 µM

CN(C)c1ccc(/C=C(\NC(=O)c2ccccc2)c2nc3ccc4c(c3[nH]2)C(=O)c2ccccc2C4=O)cc1
inactive: HCC 2998 > 100 µM | 786-0 25.4 µM | NCI-H522 8.79 µM | UO-31 1.33 µM | U-251 31.5 µM | TK-10 17.1 µM | SK-MEL-2 61.8 µM | M14 53.8 µM | EKVX 48.1 µM | CAKI-1 9.1 µM | UACC-62 35.8 µM | OVCAR-3 32.2 µM | HCT-116 20.9 µM | A549 20 µM

c1ccc(CN(Cc2ccccn2)Cn2cccn2)nc1
inactive: 786-0 91.2 µM | NCI-H522 > 100 µM | UO-31 79.6 µM | U-251 39.2 µM | ACHN 33 µM | TK-10 > 100 µM | SK-MEL-2 > 100 µM | M14 25.9 µM | EKVX 34.9 µM | CAKI-1 > 100 µM | UACC-62 20.3 µM | OVCAR-3 > 100 µM | HCT-116 22.5 µM | A549 54.6 µM

C=CCNC(=O)N(CCCCC(NC(C)=O)C(=O)NCc1ccccc1)Cc1ccccc1 (stereo not drawn)
inactive: 786-0 > 100 µM | NCI-H522 > 100 µM | UO-31 > 100 µM | U-251 > 100 µM | ACHN > 100 µM | TK-10 > 100 µM | SK-MEL-2 > 100 µM | M14 > 100 µM | EKVX > 100 µM | CAKI-1 > 100 µM | UACC-62 > 100 µM | OVCAR-3 > 100 µM | A549 > 100 µM
